Data on two compounds can be found in US20130137081A1, “METHOD OF CRYOPRESERVING SELECTED SPERM CELLS” (XY,LLC, priority 1999, published 2013).

One assay concerns flow-sorted bull sperm. The assay is described as follows: Post-thaw motility of bulk-sorted frozen sperm: Hoechst 33342 dye concentration and laser intensity (Example 3). The class given is cell-based, bovine. To be noted: for post-thaw motility: main effect mean. The procedure: Straws were thawed in a 37° C. water bath for 30 sec. Blind estimates of progressive motility were made after incubating samples at 37° C. for 0, 1 and 2 h post-thawing. Each of two observers estimated progressive sperm motility from each of two straws of semen. These four blind estimates for each experimental unit represent subsampling.
Sperm of 6 bulls were collected and prepared as described in Example 1A.
a) Experimental Design. • One ejaculate (2 bulls) and 2 ejaculates on different days (4 bulls) were used in a 2 by 2 design plus control.
b) Staining and Sorting. • Staining, preparation for sorting and sorting sperm were achieved as described in Example 2 except that the Hoechst 33342 dye was added to sperm suspensions at a final concentration of 149 μM or 224 μM; and sperm were bulked-sorted with the laser operating at 100 mW or 150 mW of incident power. Bulk-sorted sperm were collected into 50-ml plastic tubes as described in Example 2. Four tubes containing approximately 15×10^6 total sperm/tube were collected over 1 h for each bull. The sorted sperm were incubated for 1 h at 22° C. to simulate a longer sorting time.
c) Preparation for Freezing. • Following incubation, the sperm were cooled as in Example 2. The sperm were then concentrated by centrifugation at 5° C. at 850×g for 20 minutes. After removing the supernatant, 150 μl of Tris-A fraction extender was added to each 150-μl sperm pellet at 5° C. All of the sperm pellets were suspended by gentle repeated aspiration and the sperm of individual bulls were pooled. Tris B-fraction extender was added stepwise as described in Example 2. A non-stained, non-sorted control for each bull was prepared at 20×10^6 sperm/ml in Tris extender containing 6% glycerol and cooled to 5° C. while the bulk-sorted sperm were being prepared.
d) Equilibration and Freezing. • The control and sorted sperm were packaged into 0.25-ml polyvinylchloride straws as described in Example 2, equilibrated at 5° C. for 3 h and then frozen conventionally.
Straws were thawed and evaluated as described in Example 2.

In the next assay the test system is bull sperm. The assay is described as follows: Post-thaw progressive motility of sperm frozen in WET extender with SDS (Example 5A). The class given is cell-based, bovine. Particulars: mean of 6 bulls. The procedure: Sperm of 6 bulls were collected and prepared as described in Example 1A. Sperm from each of 6 bulls were extended to 20×10^6/ml in 20% whole egg Tris (“WET”) extender containing 0, 0.03, 0.06, 0.09, or 0.12 percent SDS, packaged into straws and frozen. WET extender was prepared using 3.028 g of Tris[hydroxymethyl]aminomethane, 1.78 g of citric acid monohydrate, and 1.25 g of fructose per 100 ml of double distilled water, to which 20% whole egg (vol/vol) was added. The WET extender was prepared at a pH of about 7.0 and contained a final glycerol concentration of about 6% (vol/vol). The WET extender also contained 1000 IU of penicillin “G” sodium and 100 μg of streptomycin sulfate/ml.

As for `CCOc1ccc(-c2nc3ccc(-c4nc5ccc(N6CCN(C)CC6)cc5[nH]4)cc3[nH]2)cc1` [Hoechst 33342, bis-Benzimide H-33342], in the assay with flow-sorted bull sperm (149 μM vs 224 μM), the “effect of dye concentration on post-thaw sperm motility” value is given as “no effect”. The post-thaw motility is recorded as 41% in the assay with flow-sorted bull sperm (Hoechst 33342 149 μM, 0 h incubation at 37° C.); 39% with flow-sorted bull sperm (Hoechst 33342 149 μM, 1 h incubation at 37° C.); 30% in the assay on flow-sorted bull sperm (Hoechst 33342 149 μM, 2 h incubation at 37° C.); 42% with flow-sorted bull sperm (Hoechst 33342 224 μM, 0 h incubation at 37° C.); 39% in the assay with flow-sorted bull sperm (Hoechst 33342 224 μM, 1 h incubation at 37° C.); 30% in the assay with flow-sorted bull sperm (Hoechst 33342 224 μM, 2 h incubation at 37° C.).

As to `CCCCCCCCCCCCOS(=O)(=O)[O-].[Na+]` [SDS, sodium dodecyl sulfate], the “progressive motile sperm approximately 10 minutes post-thaw” value in the assay with bull sperm (WET extender containing 0.03 percent SDS) worked out at 51%; with bull sperm (WET extender containing 0.06 percent SDS), 50%; in the assay on bull sperm (WET extender containing 0.09 percent SDS) it was 51%; in the assay on bull sperm (WET extender containing 0.12 percent SDS) it was 48%.
